Experimental data reported in ChEMBL document CHEMBL2346660, “Synthesis and biological evaluation of trans 6-methoxy-1,1-dimethyl-2-phenyl-3-aryl-2,3-dihydro-1H-inden-4-yloxyalkylamine derivatives against drug susceptible, non-replicating M. tuberculosis H37Rv and clinical multidrug resistant strains” (Bioorg Med Chem Lett, 2013).
Converted amounts (≈) assume the structure as drawn. The source made the active and inactive calls. No cut-off for these calls is given here.

Columns and labels:
[1] = tested on: Mycobacterium tuberculosis; experiment: Antimicrobial activity against Mycobacterium tuberculosis H37Rv infected in BALB/c mouse assessed as log10 reduction of bacterial growth in lungs at 25 mg/kg, po administered 6 days a week for 30 days starting from 2 days post infection relative to untreated control; type: functional
[2] = Selectivity index, ratio of CC50 for african green monkey Vero cells tp MIC for Mycobacterium tuberculosis H37Rv; type: functional
[3] = Lipophilicity, log P of the compound; type: physicochemical; conditions: octanol/water
[4] = Cytotoxicity against african green monkey Vero cells after 72 hrs by resazurin assay; type: cell-based; conditions: chlorocebus sabaeus
[5] = tested on: Mycobacterium tuberculosis; experiment: Antimicrobial activity against Mycobacterium tuberculosis H37Rv by BACTEC radiometric method; type: functional
[6] = tested on: Mycobacterium tuberculosis; experiment: Antimicrobial activity against compound-sensitive Mycobacterium tuberculosis 2280 by agar dilution method and BACTEC radiometric method; type: functional
[7] = tested on: Mycobacterium tuberculosis; type: functional, organism-based; conditions: H37Rv, 6.25 ug/ml
[8] = tested on: Mycobacterium tuberculosis; experiment: Antimicrobial activity against Mycobacterium tuberculosis H37Rv infected in mouse J774A.1 cells assessed as growth inhibition at MIC; type: functional
[9] = tested on: Mycobacterium tuberculosis; experiment: Antimicrobial activity against Mycobacterium tuberculosis H37Rv infected in BALB/c mouse assessed as log10 reduction of bacterial growth in lungs at 100 mg/kg, po administered 6 days a week for 30 days starting from 2 days post infection relative to untreated control; type: functional

With `NNC(=O)c1ccncc1` [ISONIAZID] the log10cfu [1] was 2.8.
With `CC[C@@H](CO)NCCN[C@@H](CC)CO` [ETHAMBUTOL] the “Selectivity Index” value [2] was 77.02, the logP [3] was 0.14 and the CC50 at 72 h [4] was 38.5 µg/mL (≈ 188 µM). For the same compound, the MIC [5] was 0.5 µg/mL (≈ 2.45 µM).
For `COc1cc(OCCN2CCCCCC2)c2c(c1)C(C)(C)[C@H](c1ccccc1)[C@H]2c1c(OC)ccc2ccccc12` (relative stereo), the MIC [6] was 1.56 µg/mL (≈ 2.84 µM), the “Selectivity Index” value [2] was 15.37 and the logP [3] was 8.53. For the same compound, the CC50 at 72 h [4] was 24 µg/mL (≈ 43.6 µM) and the MIC [5] was 1.56 µg/mL (≈ 2.84 µM).
In the case of `COc1cc(OCCN2CCCCCC2)c2c(c1)C(C)(C)[C@H](c1ccccc1)[C@H]2c1ccccc1` (relative stereo), the “Selectivity Index” value [2] is reported as 2.6, the logP [3] is reported as 7.66 and the CC50 at 72 h [4] is reported as 8.11 µg/mL (≈ 17.3 µM). The MIC [5] was 3.12 µg/mL (≈ 6.65 µM).
With `COc1cc(OCCN2CCOCC2)c2c(c1)C(C)(C)[C@H](c1ccccc1)[C@H]2c1ccccc1` (relative stereo) the “Selectivity Index” value [2] was 5.6, the logP [3] was 6.11 and the CC50 at 72 h [4] was 17.5 µg/mL (≈ 38.2 µM). The MIC [5] was 3.12 µg/mL (≈ 6.83 µM).
For `COc1cc(OCCN(C(C)C)C(C)C)c2c(c1)C(C)(C)[C@H](c1ccccc1)[C@H]2c1ccccc1` (relative stereo), the Activity [7] was “Active”, the “growth inhibition (GI)” value [8] was >90% and the MIC [6] was 3.12 µg/mL (≈ 6.63 µM). For the same compound, the log10cfu [9] was 1.35, the “Selectivity Index” value [2] was 15.73 and the logP [3] was 7.82. For the same compound, the CC50 at 72 h [4] was 49.2 µg/mL (≈ 104 µM) and the MIC [5] was 3.12 µg/mL (≈ 6.63 µM).
For `COc1cc(OCCCN(C)C)c2c(c1)C(C)(C)[C@H](c1ccccc1)[C@H]2c1ccccc1` (relative stereo), the “Selectivity Index” value [2] was 1.4, the logP [3] was 6.62 and the CC50 at 72 h [4] was 4.59 µg/mL (≈ 10.7 µM). For the same compound, the MIC [5] was 3.12 µg/mL (≈ 7.27 µM).
In the case of `COc1cc(OCCN2CCCC2)c2c(c1)C(C)(C)[C@H](c1ccccc1)[C@H]2c1ccccc1` (relative stereo), the “Selectivity Index” value [2] is reported as 2.39, the logP [3] is reported as 6.83 and the CC50 at 72 h [4] is reported as 7.49 µg/mL (≈ 17 µM). It also gave an MIC [5] of 3.12 µg/mL (≈ 7.08 µM).
In the case of `COc1cc(OCCN2CCCCC2)c2c(c1)C(C)(C)[C@H](c1ccccc1)[C@H]2c1ccccc1` (relative stereo), the “Selectivity Index” value [2] is reported as 1.54, the logP [3] is reported as 6.57 and the CC50 at 72 h [4] is reported as 2.41 µg/mL (≈ 5.29 µM). For the same compound, the MIC [5] was 1.56 µg/mL (≈ 3.42 µM).
For `CO[C@H]1/C=C/O[C@@]2(C)Oc3c(C)c(O)c4c(O)c(cc(O)c4c3C2=O)NC(=O)/C(C)=C\C=C\[C@H](C)[C@H](O)[C@@H](C)[C@@H](O)[C@@H](C)[C@H](OC(C)=O)[C@@H]1C` [RIFAMYCIN], the “Selectivity Index” value [2] was 160.1, the logP [3] was 3.71 and the CC50 at 72 h [4] was 62.5 µg/mL (≈ 89.5 µM). For the same compound, the MIC [5] was 0.39 µg/mL (≈ 0.559 µM).
In the case of `CCN(CC)CCOc1cc(OC)cc2c1[C@H](c1ccccc1)[C@@H](c1ccccc1)C2(C)C` (relative stereo), the “Selectivity Index” value [2] is reported as 1.19, the logP [3] is reported as 7.19 and the CC50 at 72 h [4] is reported as 3.74 µg/mL (≈ 8.43 µM). The MIC [5] was 3.12 µg/mL (≈ 7.04 µM).
For `COc1cc(OCCN(C)C)c2c(c1)C(C)(C)[C@H](c1ccccc1)[C@H]2c1ccccc1` (relative stereo), the “Selectivity Index” value [2] was 0.47, the logP [3] was 7.24 and the CC50 at 72 h [4] was 2.96 µg/mL (≈ 7.12 µM). It also gave an MIC [5] of 6.25 µg/mL (≈ 15 µM).
For `COc1cc(OCCN2CCCCC2)c2c(c1)C(C)(C)[C@H](c1ccccc1)[C@H]2c1c(OC)ccc2ccccc12` (relative stereo), the “Selectivity Index” value [2] was 3.53, the logP [3] was 8.11 and the CC50 at 72 h [4] was 5.52 µg/mL (≈ 10.3 µM). The MIC [5] was 1.56 µg/mL (≈ 2.91 µM).
